In patent US20150065440A1 (Progen Pharmaceuticals Limited, priority 2007, published 2015):

Experiments:
VEGF = biological target: T1, VEGF (Homo sapiens, UniProt P15692); assay: Growth factor binding assay (SPR solution affinity), VEGF; conditions: HBS-EP buffer, 25° C.
T1 sequence (P15692 207-395): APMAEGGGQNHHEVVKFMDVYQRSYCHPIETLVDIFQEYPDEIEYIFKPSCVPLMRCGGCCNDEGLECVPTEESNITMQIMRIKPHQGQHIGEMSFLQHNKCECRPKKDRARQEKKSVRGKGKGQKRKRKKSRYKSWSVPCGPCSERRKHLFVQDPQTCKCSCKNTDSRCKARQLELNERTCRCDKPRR
Procedure, shortened: (§1)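 Kd measured by SPR solution affinity: fixed growth factor with varying ligand competing for heparin-coated sensorchip, 25 °C. Buffer HBS-EP pH 7.4 (150 mM NaCl) for FGF-1 and VEGF; FGF-2 with 0.3 M NaCl. Duplicate values averaged.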

FGF-1 = FGF-1 (Homo sapiens, UniProt P05230); assay: Growth factor binding assay (SPR solution affinity), FGF-1; conditions: SPR, HBS-EP buffer, 25° C.; read-out: Kd FGF-1
FGF-1, sequence (P05230 whole entry, species assumed): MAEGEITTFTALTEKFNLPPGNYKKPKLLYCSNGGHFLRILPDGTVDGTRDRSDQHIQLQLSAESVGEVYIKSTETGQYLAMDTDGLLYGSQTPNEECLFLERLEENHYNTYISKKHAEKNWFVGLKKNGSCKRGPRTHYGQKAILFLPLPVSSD

FGF-2 = FGF-2 (Homo sapiens, UniProt P09038); assay: Growth factor binding assay (SPR solution affinity), FGF-2; conditions: SPR, HBS-EP buffer containing 0.3 M NaCl, 25° C.; read-out: Kd FGF-2
FGF-2, sequence (P09038 143-288, species assumed): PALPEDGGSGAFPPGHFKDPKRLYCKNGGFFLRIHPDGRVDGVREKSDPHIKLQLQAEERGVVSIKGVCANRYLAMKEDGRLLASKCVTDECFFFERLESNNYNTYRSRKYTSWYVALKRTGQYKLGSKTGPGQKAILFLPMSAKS
Procedure, shortened: as §1

[1] = system: pooled normal human plasma; assay: Anticoagulant activity, APTT; conditions: 0.1 mg/mL in normal pooled human plasma
Experimental: APTT measurements were performed on a STAGO STA-Compact Coagulation Analyser using standard protocols according to the manufacturer's instructions. Unfractionated heparin (UFH) was used as a control.

[2] = system: normal pooled human plasma; assay: Anticoagulant activity, Heptest; conditions: 0.1 mg/mL in normal pooled human plasma
HSV-2 = assay: Viral plaque number-reduction assay, HSV-2; conditions: Human alphaherpesvirus 2, read-out: HSV-2 IC50
Procedure, shortened: (§2)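 200 PFU virus premixed 10 min with compound (100 μg/mL screen) and kept throughout infection. HSV plaques in GMK AH1 cells, RSV (strain A-2) in HEp-2 cells. Methylcellulose overlay, 37 °C, crystal violet staining after 2 days (HSV-2) or 3 days (HSV-1); plaque numbers counted.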

RSV = assay: Viral plaque number-reduction assay, RSV; conditions: human respiratory syncytial virus, read-out: RSV IC50
Procedure, shortened: as §2

[3] = biological target: T2, recombinant human heparanase (Homo sapiens, UniProt Q9Y251); assay: Heparanase inhibition assay (fondaparinux cleavage, WST-1); conditions: read-out: Ki Heparanase; IC50 converted into Ki; fondaparinux 100 μM, pH 5.0
T2 sequence (Q9Y251 158-543 limits assumed): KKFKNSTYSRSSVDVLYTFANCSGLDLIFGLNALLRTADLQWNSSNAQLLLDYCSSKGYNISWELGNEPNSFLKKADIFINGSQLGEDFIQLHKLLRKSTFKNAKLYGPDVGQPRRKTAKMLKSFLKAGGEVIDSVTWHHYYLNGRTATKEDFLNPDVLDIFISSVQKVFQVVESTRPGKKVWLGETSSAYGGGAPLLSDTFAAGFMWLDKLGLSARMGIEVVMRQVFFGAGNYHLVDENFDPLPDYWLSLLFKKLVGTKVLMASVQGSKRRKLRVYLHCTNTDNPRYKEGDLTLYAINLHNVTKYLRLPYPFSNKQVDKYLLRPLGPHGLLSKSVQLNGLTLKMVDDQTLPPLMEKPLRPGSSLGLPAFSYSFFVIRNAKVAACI
T2 sequence (Q9Y251 36-109 limits assumed): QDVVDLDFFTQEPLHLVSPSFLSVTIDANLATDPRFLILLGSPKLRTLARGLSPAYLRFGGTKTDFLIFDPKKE

Kd (VEGF): 14 ± 4 nM | Kd (FGF-1): 4.94 ± 0.08 nM | Kd (FGF-2): 311 ± 25 nM | IC50 (HSV-2): 1 µg/mL | IC50 (RSV): 1.4 µg/mL | Ki [3]: 9.1 ± 0.3 nM
SMILES: CCCCCCCCCCCCCCCCCC(=O)NCCCO[C@@H]1O[C@H](COS(=O)(=O)[O-])[C@@H](O[C@H]2O[C@H](COS(=O)(=O)[O-])[C@@H](O[C@H]3O[C@H](COS(=O)(=O)[O-])[C@@H](O[C@H]4O[C@H](COS(=O)(=O)[O-])[C@@H](OS(=O)(=O)[O-])[C@H](OS(=O)(=O)[O-])[C@H]4OS(=O)(=O)[O-])[C@H](OS(=O)(=O)[O-])[C@H]3OS(=O)(=O)[O-])[C@H](OS(=O)(=O)[O-])[C@H]2OS(=O)(=O)[O-])[C@H](OS(=O)(=O)[O-])[C@H]1OS(=O)(=O)[O-].[Na+].[Na+].[Na+].[Na+].[Na+].[Na+].[Na+].[Na+].[Na+].[Na+].[Na+].[Na+].[Na+] [Compound 128, 3-Stearamidopropyl 2,3,4,6-tetra-O-sulfo-α-D-glucopyranosyl-(1→4)-2,3,6-tri-O-sulfo-α-D-glucopyranosyl-(1→4)-2,3,6-tri-O-sulfo-α-D-glucopyranosyl-(1→4)-2,3,6-tri-O-sulfo-β-D-glucopyranoside, tridecasodium salt]
APTT [1]: 65.8 s | Heptest [2]: 32.2 s
